The results in this text go back to the supplement of paper PMC10307832.

Assay in all cases: relative viability (nuclei count vs DMSO), 5 days (fraction); higher = more cells survive
Compound in assay [1]: CCC1=CN=CN=C1N2CCN(CC2)CC3=NC4=C(N3)C=C(C=C4)C(F)(F)F + O=C(CCCCCCC(=O)Nc1ccccc1)NO [Vorinostat] (partner 1 µM)
The gist of the method: (§1)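 Relative viability was taken as the ratio of nuclei in treated wells to nuclei in vehicle wells. Lung cancer cell lines in 1536-well plates received compounds by pin tool one day after seeding, either one drug alone or a fixed anchor-drug dose plus five library-drug doses (not always all listed) in √10 steps. Nuclei were counted on 4× images after 5 days of treatment, and values are medians of duplicate plates.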

Compound in assay [2]: CCn1c(-c2nonc2N)nc2cnc(Oc3cccc(NC(=O)c4ccc(OCCN5CCOCC5)cc4)c3)cc21 + CC(C)C[C@H](NC(=O)[C@H](Cc1ccccc1)NC(=O)c1cnccn1)B(O)O [Bortezomib] (partner 0.002 µM)
The method, boiled down: as §1

Compound in assay [3]: CCn1c(-c2nonc2N)nc2cnc(Oc3cccc(NC(=O)c4ccc(OCCN5CCOCC5)cc4)c3)cc21 + Cc1nc(Nc2ncc(C(=O)Nc3c(C)cccc3Cl)s2)cc(N2CCN(CCO)CC2)n1 [Dasatinib] (partner 0.075 µM)
The gist of the method:
as §1

Compound in assay [4]: N=C1NC(=O)/C(=C/c2ccc(O)cc2)S1 [Mirin] + N=C(N)NC(=N)NCCc1ccccc1 [Phenformin] (partner 250 µM)
The method, boiled down: as §1

Take UMC-11: the relative viability in assay [1] (first compound 0.04 µM) is 0.357; in assay [1] (first compound 0.1265 µM), 0.359; in assay [1] (first compound 0.4 µM) it was 0.376; in assay [1] (first compound 1.265 µM), 0.304; in assay [1] (first compound 4 µM), 0.316; in assay [2] (first compound 0.04 µM) it was 0.999. For the same cell line, the relative viability in assay [2] (first compound 0.1265 µM) came to 0.439; in assay [2] (first compound 0.4 µM), 0.312; in assay [2] (first compound 1.265 µM) it was 0.161; in assay [2] (first compound 4 µM) it was 0.135; in assay [3] (first compound 0.04 µM), 0.37; in assay [3] (first compound 0.1265 µM), 0.415. Besides, the relative viability in assay [3] (first compound 0.4 µM) came to 0.337; in assay [3] (first compound 1.265 µM), 0.214; in assay [3] (first compound 4 µM) it was 0.182; in assay [4] (first compound 0.25 µM), 0.351; in assay [4] (first compound 0.7906 µM), 0.272; in assay [4] (first compound 2.5 µM), 0.334. For the same cell line, the relative viability in assay [4] (first compound 7.906 µM) came to 0.32; in assay [4] (first compound 25 µM), 0.236.
